Earlier results as cited in patent US20070190094A1, “PESTICIDAL COMPOSITIONS CONTAINING ISOPROPYL-CONTAINING COMPOUNDS AS PESTICIDALLY ACTIVE INGREDIENTS” (ECOSMART TECHNOLOGIES, INC., priority 2006, published 2007).

How the values were obtained:
[1] = chronic toxicity studies; increased liver weights even at the lowest doses
[2] = U.S. Environmental Protection Agency classification
[3] = tested on: hepatic microsomal oxidase enzymes; conditions: in vivo
[4] = animal studies; treatments as low as

Compound: CCCCOCCOCCOCc1cc2c(cc1CCC)OCO2 [PBO, piperonyl butoxide]
- lowest dose at which increased liver weights were shown [1]: 30 mg/kg/day
- EPA carcinogen class [2]: class C possible human carcinogen
- effect on hepatic microsomal oxidase enzymes [3]: inhibit hepatic microsomal oxidase enzymes
- treatment level at which hepatocellular carcinomas were shown [4]: 1.2%
